Test system: 475296-252-R-J1-PDC spheroid viability
Assay: Anticancer human tumor 475296-252-R-J1-PDC patient-derived rectal carcinoma cell line growth inhibition [PI3K]
Details: spheroids with HUVEC and MSC; for IC50: curve of first compound; for viability, T/C: stronger effect = lower value
Outline: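 We assembled tumor spheroids that included a stromal compartment of HUVEC and MSCs, then exposed them to targeted agents alone and together with PI3K pathway inhibitors. Concentration series descended by half-log from clinically achievable Cmax levels. Viability served as the endpoint.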
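Also: spheroids exposed to agents for seven days before readout.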

Cn1cnc2c(F)c(Nc3ccc(Br)cc3Cl)c(C(=O)NOCCO)cc21 + CC(Nc1ncnc2nc[nH]c12)c1cc2cccc(Cl)c2c(=O)n1-c1ccccc1
IC50 (second compound 0.0316 µM): > 3 µM | IC50 (second compound 0.1 µM): > 3 µM | IC50 (second compound 0.316 µM): > 3 µM | IC50 (second compound 1 µM): 2.91 µM | IC50 (second compound 3.16 µM): 2.12 µM | IC50 (second compound 10 µM): 1.21 µM | viability, T/C (second compound 0.0316 µM, first compound 0.00949 µM): 84.4% | viability, T/C (second compound 0.0316 µM, first compound 0.03 µM): 84.9% | viability, T/C (second compound 0.0316 µM, first compound 0.0949 µM): 81.6% | viability, T/C (second compound 0.0316 µM, first compound 0.3 µM): 70.5% | viability, T/C (second compound 0.0316 µM, first compound 0.949 µM): 63.1% | viability, T/C (second compound 0.0316 µM, first compound 3 µM): 53.9% | viability, T/C (second compound 0.1 µM, first compound 0.00949 µM): 95.8% | viability, T/C (second compound 0.1 µM, first compound 0.03 µM): 85.5% | viability, T/C (second compound 0.1 µM, first compound 0.0949 µM): 93.3% | viability, T/C (second compound 0.1 µM, first compound 0.3 µM): 73.5% | viability, T/C (second compound 0.1 µM, first compound 0.949 µM): 66.6% | viability, T/C (second compound 0.1 µM, first compound 3 µM): 55.7% | viability, T/C (second compound 0.316 µM, first compound 0.00949 µM): 90.7% | viability, T/C (second compound 0.316 µM, first compound 0.03 µM): 92.9% | viability, T/C (second compound 0.316 µM, first compound 0.0949 µM): 86.5% | viability, T/C (second compound 0.316 µM, first compound 0.3 µM): 74.8% | viability, T/C (second compound 0.316 µM, first compound 0.949 µM): 76.3% | viability, T/C (second compound 0.316 µM, first compound 3 µM): 51.5% | viability, T/C (second compound 1 µM, first compound 0.00949 µM): 95.7% | viability, T/C (second compound 1 µM, first compound 0.03 µM): 95.7% | viability, T/C (second compound 1 µM, first compound 0.0949 µM): 81.4% | viability, T/C (second compound 1 µM, first compound 0.3 µM): 68.2% | viability, T/C (second compound 1 µM, first compound 0.949 µM): 67.3% | viability, T/C (second compound 1 µM, first compound 3 µM): 48.1% | viability, T/C (second compound 3.16 µM, first compound 0.00949 µM): 94.2% | viability, T/C (second compound 3.16 µM, first compound 0.03 µM): 92.9% | viability, T/C (second compound 3.16 µM, first compound 0.0949 µM): 76% | viability, T/C (second compound 3.16 µM, first compound 0.3 µM): 68.3% | viability, T/C (second compound 3.16 µM, first compound 0.949 µM): 62.5% | viability, T/C (second compound 3.16 µM, first compound 3 µM): 44.9% | viability, T/C (second compound 10 µM, first compound 0.00949 µM): 100% | viability, T/C (second compound 10 µM, first compound 0.03 µM): 95% | viability, T/C (second compound 10 µM, first compound 0.0949 µM): 73.2% | viability, T/C (second compound 10 µM, first compound 0.3 µM): 59.9% | viability, T/C (second compound 10 µM, first compound 0.949 µM): 59.6% | viability, T/C (second compound 10 µM, first compound 3 µM): 38.3%

C[C@@H](NC(=O)c1ncnc(N)c1Cl)c1ncc(C(=O)Nc2cc(C(F)(F)F)c(Cl)cn2)s1 + CC(Nc1ccc2c(c1)OCCn1cc(N3C(=O)OCC3C(F)F)nc1-2)C(N)=O
IC50 (second compound 0.00316 µM): > 10 µM | IC50 (second compound 0.01 µM): > 10 µM | IC50 (second compound 0.0316 µM): > 10 µM | IC50 (second compound 0.1 µM): > 10 µM | IC50 (second compound 0.316 µM): > 10 µM | IC50 (second compound 1 µM): > 10 µM | viability, T/C (second compound 0.00316 µM, first compound 0.0316 µM): 98.9% | viability, T/C (second compound 0.00316 µM, first compound 0.1 µM): 84% | viability, T/C (second compound 0.00316 µM, first compound 0.316 µM): 99.5% | viability, T/C (second compound 0.00316 µM, first compound 1 µM): 108% | viability, T/C (second compound 0.00316 µM, first compound 3.16 µM): 93.8% | viability, T/C (second compound 0.00316 µM, first compound 10 µM): 90% | viability, T/C (second compound 0.01 µM, first compound 0.0316 µM): 95% | viability, T/C (second compound 0.01 µM, first compound 0.1 µM): 76% | viability, T/C (second compound 0.01 µM, first compound 0.316 µM): 103% | viability, T/C (second compound 0.01 µM, first compound 1 µM): 103% | viability, T/C (second compound 0.01 µM, first compound 3.16 µM): 108% | viability, T/C (second compound 0.01 µM, first compound 10 µM): 89% | viability, T/C (second compound 0.0316 µM, first compound 0.0316 µM): 80.3% | viability, T/C (second compound 0.0316 µM, first compound 0.1 µM): 102% | viability, T/C (second compound 0.0316 µM, first compound 0.316 µM): 100% | viability, T/C (second compound 0.0316 µM, first compound 1 µM): 116% | viability, T/C (second compound 0.0316 µM, first compound 3.16 µM): 96.7% | viability, T/C (second compound 0.0316 µM, first compound 10 µM): 79.3% | viability, T/C (second compound 0.1 µM, first compound 0.0316 µM): 90.3% | viability, T/C (second compound 0.1 µM, first compound 0.1 µM): 93.1% | viability, T/C (second compound 0.1 µM, first compound 0.316 µM): 102% | viability, T/C (second compound 0.1 µM, first compound 1 µM): 93.8% | viability, T/C (second compound 0.1 µM, first compound 3.16 µM): 103% | viability, T/C (second compound 0.1 µM, first compound 10 µM): 69% | viability, T/C (second compound 0.316 µM, first compound 0.0316 µM): 87.7% | viability, T/C (second compound 0.316 µM, first compound 0.1 µM): 85.9% | viability, T/C (second compound 0.316 µM, first compound 0.316 µM): 91.7% | viability, T/C (second compound 0.316 µM, first compound 1 µM): 93.6% | viability, T/C (second compound 0.316 µM, first compound 3.16 µM): 84.5% | viability, T/C (second compound 0.316 µM, first compound 10 µM): 76.6% | viability, T/C (second compound 1 µM, first compound 0.0316 µM): 77.7% | viability, T/C (second compound 1 µM, first compound 0.1 µM): 84.6% | viability, T/C (second compound 1 µM, first compound 0.316 µM): 95.4% | viability, T/C (second compound 1 µM, first compound 1 µM): 93% | viability, T/C (second compound 1 µM, first compound 3.16 µM): 83% | viability, T/C (second compound 1 µM, first compound 10 µM): 63.6%

From PubChem BioAssay AID1963980 (Molecular Pharmacology Branch, DTP, NCI, 2024)
